Assay results from the Kinase Knowledgebase extract (Sharma et al. 2016).

target: MAPK14 (human) (UniProt Q16539); test: Assessment of MAPK14 Kinase Activity
Sequence (Q16539 whole entry, looked up): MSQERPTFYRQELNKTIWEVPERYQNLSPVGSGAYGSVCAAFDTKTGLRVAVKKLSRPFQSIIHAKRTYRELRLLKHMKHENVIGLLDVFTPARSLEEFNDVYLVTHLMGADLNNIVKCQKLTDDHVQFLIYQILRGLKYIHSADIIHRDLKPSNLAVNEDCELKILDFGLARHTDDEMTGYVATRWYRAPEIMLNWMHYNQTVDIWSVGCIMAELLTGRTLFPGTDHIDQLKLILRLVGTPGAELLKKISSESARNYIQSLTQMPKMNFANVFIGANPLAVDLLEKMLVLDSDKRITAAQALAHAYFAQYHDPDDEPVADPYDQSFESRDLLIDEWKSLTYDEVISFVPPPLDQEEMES

IC50, < 100 nM:
Cc1ccc(NC(=O)Nc2cn(C(C)(C)C)nc2C(=O)N2CCNC(=O)C2(C)C)cc1-c1cccnc1
Cc1ncc(NC(=O)Nc2sc(C(C)(C)C)cc2C(=O)N2CCNC(=O)C2(C)C)cc1-c1ccc(N2CCOCC2)nc1
COc1ccc(-c2cc(C)cc(NC(=O)Nc3sc(C(C)(C)C)cc3C(=O)N3CCNC(=O)C3(C)C)c2)cn1
CC(C)(C)c1cc(C(=O)N2CCNC(=O)C2(C)C)c(NC(=O)Nc2cccc(-c3ccc(OCCN4CCOCC4)nc3)c2)s1
Cc1ccc(NC(=O)Nc2sc(C(C)(C)C)cc2C(=O)N2CCN(C)C(=O)C2(C)C)cc1N1C(=O)CN(C)C1=O
Cc1ccc(NC(=O)Nc2sc(C(C)(C)C)cc2C(=O)N2CCNC(=O)C2(C)C)cc1-c1ccc(NCC(O)CO)nc1 (configuration not stated)
COCCOc1ccc(-c2cc(NC(=O)Nc3sc(C(C)(C)C)cc3C(=O)N3CCN(C)C(=O)C3(C)C)ccc2C)cn1
Cc1ccc(NC(=O)Nc2cc(C(C)(C)C)sc2C(=O)N2CCN(C)C(=O)C2(C)C)cc1-c1ccc(CN2CCOCC2)nc1
Cc1ccc(NC(=O)Nc2sc(C(C)(C)C)cc2C(=O)N2CCN(C)C(=O)C2(C)C)cc1-c1ccc(C(=O)N2CCOCC2)nc1
Cc1ccc(NC(=O)Nc2sc(C(C)(C)C)cc2C(=O)N2CCN(C)C(=O)C2(C)C)cc1-c1ccc(C(C)O)nc1 (configuration not stated)
CNC(=O)c1ccc(-c2cc(NC(=O)Nc3sc(C(C)(C)C)cc3C(=O)N3CCNC(=O)C3(C)C)ccc2C)cn1
Cc1ccc(NC(=O)Nc2sc(C(C)(C)C)cc2C(=O)N2CCNC(=O)C2(C)C)cc1-c1ccc(OCCCc2ccccn2)nc1
CC(C)(C)c1cc(C(=O)N2CCNC(=O)C2(C)C)c(NC(=O)Nc2cccc(-c3ccc(OCCCc4ccccn4)nc3)c2)s1
Cc1ccc(NC(=O)Nc2sc(C(C)(C)C)cc2C(=O)N2CCNC(=O)C2(C)C)cc1C#CCN1CCN(C)CC1
Cc1ccc(NC(=O)Nc2sc(C(C)(C)C)cc2C(=O)N2CCN(C)C(=O)C2(C)C)cc1-c1ccc(CN2CCOCC2)cn1
COCCOCC#Cc1cc(NC(=O)Nc2sc(C(C)(C)C)cc2C(=O)N2CCNC(=O)C2(C)C)ccc1C
Cc1ccc(NC(=O)Nc2sc(C(C)(C)C)cc2C(=O)N2CCN(C)C(=O)C2(C)C)cc1-c1cnc(NCC(O)CO)nc1 (configuration not stated)
Cc1ccc(NC(=O)Nc2sc(C(C)(C)C)cc2C(=O)N2CCN(C)C(=O)C2(C)C)cc1-c1ccc(-n2ccnc2)nc1
COc1ccc(-c2cc(NC(=O)Nc3sc(C(C)(C)C)cc3C(=O)N3CCC(=O)N(C)CC3)ccc2C)cn1
Cc1ccc(NC(=O)Nc2sc(C(C)(C)C)cc2C(=O)N2CCNC(=O)C2(C)C)cc1-c1ccc(F)nc1
CCc1ccc(-c2cc(NC(=O)Nc3sc(C(C)(C)C)cc3C(=O)N3CCN(C)C(=O)C3(C)C)cc(F)c2C)cn1
Cc1ccc(-c2ccc(N3CCOCC3)cn2)cc1NC(=O)Nc1cc(C(C)(C)C)sc1C(=O)N1CCNC(=O)C1(C)C
Cc1ccc(NC(=O)Nc2sc(C(C)(C)C)cc2C(=O)N2CCNC(=O)C2(C)C)cc1-c1ncccn1
COC(=O)CN1CCN(C(=O)c2cc(C(C)(C)C)sc2NC(=O)Nc2ccc(C)c(-c3ccncc3)c2)C(C)(C)C1=O
CCc1ccc(-c2cc(NC(=O)Nc3cc(C(C)(C)C)sc3C(=O)N3CCN(C)C(=O)C3(C)C)cc(F)c2C)cn1
CC(=O)c1ccc(-c2cc(NC(=O)Nc3sc(C(C)(C)C)cc3C(=O)N3CCNC(=O)C3(C)C)ccc2C)cn1
Cc1ccc(NC(=O)Nc2sc(C(C)(C)C)cc2C(=O)N2CCNC(=O)C2(C)C)cc1-c1ccc(N2CCOCC2)cn1
